{"source": "patent US20220153746A1", "about": "“NITROGEN OXIDE-DONATING PDE-5 AND/OR PDE-6 INHIBITOR COMPOUNDS, AND USES THEREOF” (ILDONG PHARMACEUTICAL CO., LTD., priority 2020, published 2022)", "experiment": "TD Phase (Groups 1 and 3): plasma and ocular tissue concentrations and pharmacokinetics of Compound 18 and its metabolite Compound 4 after once daily ocular instillation of Compound 18 nanosuspension for 7 days", "format": "in vivo, New Zealand white rabbits", "details": "for Compound 18 Lens Homogenate Conc.: homogenate dilution factor 5; for Compound 18 Iris/Ciliary Body Homogenate Conc. / Compound 18 Optic Nerve Homogenate Conc. / Compound 18 Retina Homogenate Conc. / Compound 18 Trahecular Meshwork Homogenate Conc.: homogenate dilution factor 20; for Cornea homogenate concentration: homogenate dilution factor 15", "excerpt": "This example illustrates the procedures and results for the levels of Compound 18 and its metabolite Compound 4 in plasma and ocular tissues of normotensive rabbits following ocular instillation of Compound 18 once daily for 7 consecutive days.\nTwenty five (25) male New Zealand white rabbits were divided into 5 groups of varying amounts of animals per group.\nThe Test article, Compound 18 was formulated as a 2% nanosuspension in DI water containing 0.2% PS80 (polyoxyethylenesorbitan, monooleate (Tween 80)) and 0.4% HPMC (hydroxypropylmethylcellulose) at pH 6.77. Referred to herein as “Compound 18 nanosuspension.”\nThe study consisted of three groups (Groups 1-3) of 19 male rabbits (NZW) that underwent once daily morning ocular installation (1 eyedrop) for 7 consecutive days (Day 0-6). Groups 4-5 each consisted of 3 male rabbits (NZW) that were not dosed.\nBlood samples (1 mL) were collected from the jugular vein at the intervals set out below for each group. The samples were then inverted several times following collection and held on wet ice until centrifuged. Samples were centrifuged within 60 minutes of collection under refrigeration (set at 5° C. for 10 minutes at 2000 g.\nGroup 1 (Pilot Study, terminal blood collection): blood was collected from 3 animals at 1 hour post day 7 dose of Compound 18 nanosuspension.\nGroup 3 (TD Phase, terminal blood collection): blood was collected from 3 animals at 0.5 hour, 3 animals at 2 hours, 3 animals at 4 hours, and 3 animals at 8 hours post day 7 dose of Compound 18 nanosuspension.\n(§1) Group 1 (Pilot Study): 3 animals were terminated at 1 hour post Day 7 dose of Compound 18 nanosuspension. Following blood collection and termination, ocular tissues (aqueous humor, vitreous humor, cornea, iris/ciliary body, lens, optic nerve, retina, sclera/choroid, and trabecular meshwork) were collected from each animal and the tissue weights were recorded. Note: sclera and choroid were collected together. Iris and ciliary body were collected together.\nas §1, with “3 (TD Phase):” for “1 (Pilot Study):”, “0.5 hour, 3 animals at 2 hours, 3 animals at 4 hours, and 3 animals at 8 hours” for “1 hour”\nPlasma and tissue samples from treated animals (Groups 1-3) were analyzed for Compound 18 and its metabolite Compound 4 concentrations by LC-MS/MS.\nPharmacokinetic analysis was conducted using WinNonlin Version 6.2.1 (Pharsight, Mountain View, Calif.), operating as a validated software system. Noncompartmental analysis was conducted using the extravascular administration model for ocular instillation dosing.\nThe peak plasma and ocular tissue concentration, time to achieve peak plasma and ocular tissue concentration, half-life, and area under the plasma and ocular tissue concentration-time curve (Cmax, Tmax, T1/2, and AUC) were calculated from the TD phase combined with the pilot study mean animal plasma and ocular tissue concentrations for each sampling time/dose group for Compound 18 and its metabolite Compound 4.\nBA Assay: Quantitation Range 0.05 to 100 ng/mL for Compound 18, 0.15 to 100 ng/mL for Compound 4.\n3. Pipet 50 μL of each type of pre-spiked ocular tissue samples (AH/VH) for QC samples, 50 μL of incurred aqueous humor, and vitreous humor sample (if applicable) into a 96 well plate.\nOcular Tissues Homogenate Preparation: Incurred rabbit ocular tissues were weighed in Genogrinder tubes (plastic tubes with small beads) at the time of removal from the animal and stored frozen (<−70° C.) until analysis. The rabbit incurred ocular tissues were thawed on wet ice. […]", "key": {"[1]": {"details": "TD Phase, Group 1, 1 h, individual animals"}, "[2]": {"details": "TD Phase, Group 1, 1 h, individual animals, BQL set to 0"}, "[3]": {"details": "TD Phase, Group 3, 0.5 h, individual animals"}, "[4]": {"details": "TD Phase, Group 3, 0.5 h, individual animals, BQL set to 0"}, "[5]": {"details": "TD Phase, Group 3, 2 h, individual animals"}, "[6]": {"details": "TD Phase, Group 3, 2 h, individual animals, BQL set to 0"}}, "note": "Values joined by “and” are separate entries in the source; they are usually repeats but may differ in a detail not shown here. Identical values can stand only once."}
{"smiles": "CCCc1nn(C)c2c(=O)[nH]c(-c3cc(S(=O)(=O)N4CC(CCCO[N+](=O)[O-])C4)ccc3OCC)nc12", "note": "[Compound 18, 3-(1-((4-ethoxy-3-(1-methyl-7-oxo-3-propyl-6,7-dihydro-1H-pyrazolo[4,3-d]pyrimidin-5-yl)phenyl)sulfonyl)azetidin-3-yl)propyl nitrate]", "values": [{"measurement": "AUC0-8", "setting": "Iris/Ciliary Body, Day 7, Compound 18 0.8 mg/kg ocular instillation once daily, Groups 1 and 3", "result": 150, "unit": "ng·h/g"}, {"measurement": "Compound 18 Vitreous Humor Conc.", "setting": "TD Phase, Group 1, 1 h, Mean, BQL set to 0", "result": "BQL (BQL = Below lower limit of quantitation (0.0500 ng/mL for Compound 18)"}, {"measurement": "Compound 18 Aqueous Humor Conc.", "setting": "[1]", "result": "BQL (BQL = Below lower limit of quantitation (0.0500 ng/mL for Compound 18)"}, {"measurement": "Compound 18 Plasma Conc.", "setting": "[1]", "result": "BQL^a (BQL = Below lower limit of quantitation (0.0500 ng/mL for Compound 18) and 0.0581 ng/mL"}, {"measurement": "Compound 18 Vitreous Humor Conc.", "setting": "[1]", "result": "BQL (BQL = Below lower limit of quantitation (0.0500 ng/mL for Compound 18)"}, {"measurement": "Final Compound 18 Optic Nerve Conc.", "setting": "[1]", "result": "192 ng/g and 266 ng/g"}, {"measurement": "Final Compound 18 Iris/Ciliary Body Conc.", "setting": "[2]", "result": "0 ng/g and 18.7 ng/g and 302 ng/g"}, {"measurement": "Final Compound 18 Lens Conc.", "setting": "[2]", "result": 0, "unit": "ng/g"}, {"measurement": "Final Compound 18 Retina Conc.", "setting": "[2]", "result": "6.24 ng/g and 20.2 ng/g and 27.8 ng/g"}, {"measurement": "Compound 18 Lens Homogenate Conc.", "setting": "[1]", "result": "BQL (BQL = Below lower limit of quantitation (0.0500 ng/mL for Compound 18)"}, {"measurement": "Compound 18 Iris/Ciliary Body Homogenate Conc.", "setting": "[1]", "result": "BQL (BQL = Below lower limit of quantitation (0.0500 ng/mL for Compound 18) and 0.934 ng/mL and 15.1 ng/mL"}, {"measurement": "Compound 18 Optic Nerve Homogenate Conc.", "setting": "[1]", "result": "9.59 ng/mL and 13.3 ng/mL"}, {"measurement": "Compound 18 Retina Homogenate Conc.", "setting": "[1]", "result": "0.312 ng/mL and 1.01 ng/mL and 1.39 ng/mL"}, {"measurement": "Compound 18 Trahecular Meshwork Homogenate Conc.", "setting": "[1]", "result": "BQL (BQL = Below lower limit of quantitation (0.0500 ng/mL for Compound 18)"}, {"measurement": "Compound 18 Aqueous Humor Conc.", "setting": "TD Phase, Group 3, 0.5 h, Mean, BQL set to 0", "result": "BQL (BQL = Below lower limit of quantitation (0.0500 ng/mL for Compound 18)"}, {"measurement": "Compound 18 Aqueous Humor Conc.", "setting": "[3]", "result": "BQL^a (BQL = Below lower limit of quantitation (0.0500 ng/mL for Compound 18)"}, {"measurement": "Compound 18 Plasma Conc.", "setting": "[3]", "result": "0.627 ng/mL and 0.0972 ng/mL and 0.0599 ng/mL"}, {"measurement": "Compound 18 Vitreous Humor Conc.", "setting": "[3]", "result": "BQL^a (BQL = Below lower limit of quantitation (0.0500 ng/mL for Compound 18)"}, {"measurement": "Final Compound 18 Optic Nerve Conc.", "setting": "[3]", "result": "116 ng/g and 30.4 ng/g and 183 ng/g"}, {"measurement": "Final Compound 18 Sclera/Choroid Conc.", "setting": "[3]", "result": "88.8 ng/g and 47.2 ng/g and 186 ng/g"}, {"measurement": "Final Compound 18 Iris/Ciliary Body Conc.", "setting": "[4]", "result": "2.24 ng/g and 0 ng/g and 268 ng/g"}, {"measurement": "Final Compound 18 Lens Conc.", "setting": "[4]", "result": "0 ng/g (2×) and 6.35 ng/g"}, {"measurement": "Final Compound 18 Retina Conc.", "setting": "[4]", "result": "20.2 ng/g and 29.8 ng/g"}, {"measurement": "Compound 18 Lens Homogenate Conc.", "setting": "[3]", "result": "BQL^1 (BQL = Below lower limit of quantitation (0.0500 ng/mL for Compound 18)"}, {"measurement": "Compound 18 Sclera/Choroid Homogenate Conc.", "setting": "TD Phase, Group 3, 0.5 h, individual animals, homogenate dilution factor 8", "result": "11.1 ng/mL and 5.90 ng/mL and 23.3 ng/mL"}, {"measurement": "Cornea homogenate concentration", "setting": "[3]", "result": "BQL^a (BQL = Below lower limit of quantitation (0.0500 ng/mL for Compound 18)"}, {"measurement": "Compound 18 Iris/Ciliary Body Homogenate Conc.", "setting": "[3]", "result": "0.112 ng/mL and BQL^a (BQL = Below lower limit of quantitation (0.0500 ng/mL for Compound 18) and 13.4 ng/mL"}, {"measurement": "Compound 18 Optic Nerve Homogenate Conc.", "setting": "[3]", "result": "5.79 ng/mL and 1.52 ng/mL and 9.17 ng/mL"}, {"measurement": "Compound 18 Retina Homogenate Conc.", "setting": "[3]", "result": "1.01 ng/mL and 1.49 ng/mL"}, {"measurement": "Compound 18 Trahecular Meshwork Homogenate Conc.", "setting": "[3]", "result": "BQL^a (BQL = Below lower limit of quantitation (0.0500 ng/mL for Compound 18)"}, {"measurement": "Compound 18 Aqueous Humor Conc.", "setting": "TD Phase, Group 3, 2 h, Mean, BQL set to 0", "result": "BQL (BQL = Below lower limit of quantitation (0.0500 ng/mL for Compound 18)"}, {"measurement": "Compound 18 Aqueous Humor Conc.", "setting": "[5]", "result": "BQL (BQL = Below lower limit of quantitation (0.0500 ng/mL for Compound 18)"}, {"measurement": "Compound 18 Plasma Conc.", "setting": "[5]", "result": "BQL (BQL = Below lower limit of quantitation (0.0500 ng/mL for Compound 18)"}, {"measurement": "Compound 18 Vitreous Humor Conc.", "setting": "[5]", "result": "BQL (BQL = Below lower limit of quantitation (0.0500 ng/mL for Compound 18)"}, {"measurement": "Final Compound 18 Optic Nerve Conc.", "setting": "[5]", "result": "24.4 ng/g and 1030 ng/g and 79.0 ng/g"}, {"measurement": "Final Compound 18 Iris/Ciliary Body Conc.", "setting": "[6]", "result": "1.27 ng/g and 15.4 ng/g and 0 ng/g"}, {"measurement": "Final Compound 18 Lens Conc.", "setting": "[6]", "result": 0, "unit": "ng/g"}, {"measurement": "Final Compound 18 Retina Conc.", "setting": "[6]", "result": "31.5 ng/g and 69.4 ng/g and 3.40 ng/g"}, {"measurement": "Compound 18 Lens Homogenate Conc.", "setting": "[5]", "result": "BQL (BQL = Below lower limit of quantitation (0.0500 ng/mL for Compound 18)"}, {"measurement": "Cornea homogenate concentration", "setting": "[5]", "result": "BQL (BQL = Below lower limit of quantitation (0.0500 ng/mL for Compound 18)"}, {"measurement": "Compound 18 Iris/Ciliary Body Homogenate Conc.", "setting": "[5]", "result": "0.0637 ng/mL and 0.772 ng/mL and BQL (BQL = Below lower limit of quantitation (0.0500 ng/mL for Compound 18)"}, {"measurement": "Compound 18 Optic Nerve Homogenate Conc.", "setting": "[5]", "result": "1.22 ng/mL and 51.5 ng/mL and 3.95 ng/mL"}]}
